# Laboratory results reported in patent USRE34918E, “Azaazulene compounds which are useful as antiallergic and antiinflammatory agents” (Kaken Pharmaceutical Co., Ltd., priority 1988, dated 1995).
# Structures can show the parent of a compound that is named as a salt.
# System: histamine release from rat mast cell
# Experiment: Inhibitory activity against histamine release from rat mast cell
# Type: cell-based
# Details: 10 μg/ml, read-out: Inhibitory rate against histamine release
# Experimental: An anti-dinitrophenylated-ovalbumin (anti DNP-OVA) rat antiserum having 800 of PCA titer in homologous passive cutaneous anaphylaxis reaction in rats for 48 hours was diluted double with physiological saline, and 1 ml of diluted antiserum was injected intraperitoneally into rats to be passively sensitized. On the next day, peritoneal exudation cell (hereinafter referred to as "PEC") was collected. The collected PEC was washed with a medium containing 0.1% BSA, and 1.5×10^5 of the PEC were added to each test tube. AFter incubation at 37° C. for 10 minutes, 50 μl of test compound solution in a same medium was added thereto. After 30 seconds, 50 μl of antigen solution (DVA-OVA 100 μg/ml) was further added thereto to give the total amount of 500 μl of the reaction mixture, and histamine release reaction was induced. After 10 minutes, 1 ml of physiological saline with cooled Tris buffered solution containing 1 mM EDTA were added thereto to stop the reaction. After centrifugation, the amount of histamine in supernatant was determined by fluorescence method according to the method of Shore et al [cf. J. Pharmacol. Exp. Ther., 127, 182 (1959)]. Inhibition rate against histamine release was calculated according to the following equation.
# Inhibition rate against histamine release [formula] M: Amount of histamine in supernatant under addition of antigen and non-addition of test compound
# S: Amount of histamine in supernatant under addition of antigen and test compound
# B: Amount of histamine in supernatant under non-addition of antigen and test compound.
# The test compound was used in a concentration of 10 μg/ml.
row,SMILES,inhibition at 10 µg/mL [%]
1,Cc1cc(C)c(Cn2c3cccccc-3c(-c3nn[nH]n3)c2=O)c(C)c1 [Example 47],12.6
2,CCCCCCn1c2cccccc-2c(-c2nnn[nH]2)c1=O [Example 20],91.1
3,O=c1c(-c2nn[nH]n2)c2cccccc-2n1CCCCl [Example 54],55.5
4,O=c1c(-c2nn[nH]n2)c2cccccc-2n1Cc1cccc(F)c1 [Example 33],67.2
5,CC(C)c1cccc2c(-c3nn[nH]n3)c(=O)n(Cc3ccc(Cl)cc3)c-2c1 [Example 57],89
6,CC(C)c1cccc2c(-c3nn[nH]n3)c(=O)n(CCCCc3ccccc3)c-2c1 [Example 51],63.6
7,CCOC(=O)c1ccc(Cn2c3cccccc-3c(-c3nn[nH]n3)c2=O)cc1 [Example 37],64.8
8,O=c1c(-c2nn[nH]n2)c2cccccc-2n1CC=Cc1ccccc1 [Example 42],78.2
9,N#Cc1c2cccccc-2nc1N1CCCC1C(=O)O (stereo not shown) [Example 78],50.5
10,Cn1c2cccccc-2c(-c2nnn[nH]2)c1=O [Example 15],96.1
11,O=c1c(-c2nn[nH]n2)c2cccccc-2n1CCCc1ccccc1 [Example 28],92.6
12,"N#Cc1c2cccccc-2nc1NCC(c1ccccc1)c1ccccc1 [Example 58, 3-Cyano-2-(2,2-diphenylethylamino)-1-azaazulene]",16.1
13,CC(C)c1cccc2c(C#N)c(NCC(=O)O)nc-2c1 [Example 79],85.8
14,"N#Cc1c2cccccc-2nc1NCCC(c1ccccc1)c1ccccc1 [Example 59, 3-Cyano-2-(3,3-diphenylpropylamino)-1-azaazulene]",14
15,N#Cc1c2cccccc-2nc1NC(CO)C(=O)O (stereo not shown) [Example 72],22.5
16,O=c1c(-c2nn[nH]n2)c2cccccc-2n1CCc1ccc(O)c(O)c1 [Example 46],57.6
17,N#Cc1c2cccccc-2nc1NCCN1CCCC1 [Example 75],-9.6
18,N#Cc1c2cccccc-2nc1NC(Cc1ccccc1)C(=O)O (stereo not shown) [Example 71],8.1
19,"CC(C)c1cccc2c(C#N)c(N=[N+]=[N-])nc-2c1 [Example 61, 2-Azido-3-cyano-7-isopropyl-1-azaazulene]",3.8

row,SMILES,inhibition at 10 µg/mL [%]
1,CC(C)n1c2cccccc-2c(-c2nn[nH]n2)c1=O [Example 52],81.2
2,CCOC(=O)C(Cc1ccccc1)Nc1nc2cccccc-2c1C#N (stereo not shown) [Example 70],4.2
3,O=c1c(-c2nn[nH]n2)c2cccccc-2n1CCOc1ccccc1 [Example 43],65.3
4,"COc1ccccc1N1CCN(c2nc3cccccc-3c2C#N)CC1 [Example 64, 3-Cyano-2-(4-(2-methoxyphenyl)piperazinyl)-1-azaazulene]",-12.2
5,N#Cc1c2cccccc-2nc1N1CCN(C(c2ccccc2)c2ccccc2)CC1 [Example 69],33.2
6,O=c1c(-c2nn[nH]n2)c2cccccc-2n1CCc1ccccc1 [Example 26],94.1
7,CC(C)c1cccc2n(Cc3ccc4ccccc4n3)c(=O)c(-c3nn[nH]n3)c-2c1 [Example 53],56.3
8,O=c1[nH]c2cccccc-2c1-c1nnn[nH]1 [Example 14],89.6
9,"CC(C)c1cccc2n(CCc3ccc(O)c(O)c3)c(=O)c(-c3nnn[nH]3)c-2c1 [Example 12, 1-(3,4-Dihydroxyphenylethyl)-5-iso-propyl-3-(5-tetrazolyl)-1-azaazulane-2-one]",60
10,N#Cc1c2cccccc-2nc1NC(c1ccccc1)c1ccccc1 [Example 65],17.5
11,N#Cc1c2cccccc-2nc1Nc1ccc(C(=O)O)cc1 [Example 67],57
12,C=CCn1c2cccccc-2c(-c2nnn[nH]2)c1=O [Example 22],84.2
13,O=c1c(-c2nn[nH]n2)c2cccccc-2n1CCCCc1ccccc1 [Example 31],70
14,O=c1c(-c2nn[nH]n2)c2cccccc-2n1Cc1ccc(Cl)cc1Cl [Example 45],19.3
15,CC(C)c1cccc2c(-c3nn[nH]n3)c(=O)n(CCc3ccccc3)c-2c1 [Example 27],89.6
16,CCCCCCCCCCCCCCCCCCn1c2cccccc-2c(-c2nnn[nH]2)c1=O [Example 21],10.1
17,CCOC(=O)c1ccc(Nc2nc3cccccc-3c2C#N)cc1 [Example 66],20.5
18,O=c1c(-c2nn[nH]n2)c2cccccc-2n1CSc1ccccc1 [Example 44],85
19,CCCc1c(OCCCn2c3cccc(C(C)C)cc-3c(-c3nn[nH]n3)c2=O)ccc(C(C)=O)c1O [Example 50],59.8

row,SMILES,inhibition at 10 µg/mL [%]
1,O=c1c(-c2nn[nH]n2)c2cccccc-2n1Cc1ccc(O)cc1 [Example 40],93.5
2,"O=c1c(-c2nnn[nH]2)c2cccccc-2n1Cc1ccc(Cl)cc1 [Example 11, 1-(4-Chlorobenzyl)-3-(5-tetrazolyl)-1-azaazulane-2-one]",85.8
3,O=c1c(-c2nn[nH]n2)c2cccccc-2n1CCCCCc1ccccc1 [Example 32],1.5
4,CC(C)c1cccc2n(Cc3cccs3)c(=O)c(-c3nn[nH]n3)c-2c1 [Example 55],65.8
5,N#Cc1ccc(Cn2c3cccccc-3c(-c3nn[nH]n3)c2=O)cc1 [Example 36],43.2
6,N#CCCCn1c2cccccc-2c(-c2nnn[nH]2)c1=O [Example 24],86.3
7,"CC(C)c1cccc2nc(NCC(=O)O)c(C#N)c-2c1 [Example 63, Sodium salt of 2-carboxymethylamino-3-cyano-5-isopropyl-1-azaazulene]",85.3
8,COC(=O)c1ccccc1Nc1nc2cccccc-2c1C#N [Example 68],8.9
9,O=c1c(-c2nn[nH]n2)c2cccccc-2n1Cc1ccccc1F [Example 34],87.3
10,N#Cc1c2cccccc-2nc1N [Example 74],64.8
11,COC(=O)C1CCCN1c1nc2cccccc-2c1C#N (stereo not shown) [Example 77],35.7
12,O=c1c(-c2nnn[nH]2)c2cccccc-2n1CCC(c1ccccc1)c1ccccc1 [Example 25],4.6
13,CC(Nc1nc2cccccc-2c1C#N)C(=O)O (stereo not shown) [Example 73],60.8
14,"O=c1c(-c2nnn[nH]2)c2cccccc-2n1Cc1ccc(F)cc1 [Example 8, 1-(4-Fluorobenzyl)-3-(5-tetrazolyl)-1-azaazulane-2-one]",89.6
15,COc1ccc(Cn2c3cccccc-3c(-c3nn[nH]n3)c2=O)cc1 [Example 39],93
16,CC(C)c1cccc2n(Cc3ccc(Cl)cc3)c(=O)c(-c3nn[nH]n3)c-2c1 [Example 56],88
17,CCOCCn1c2cccccc-2c(-c2nnn[nH]2)c1=O [Example 23],87.2
18,O=C(Cn1c2cccccc-2c(-c2nn[nH]n2)c1=O)c1ccc(Cl)cc1 [Example 41],32.3
19,CC(C)c1cccc2nc(N=[N+]=[N-])c(C#N)c-2c1 [Example 76],70.5

# Target: T1, 5-lipoxygenase (Cavia porcellus, UniProt A0A286X958)
# T1 construct: 5-lipoxygenase was prepared with polymorphonuclear leukocyte obtained from peritoneal cavity; endogenous in cells; host or cells: guinea pig peritoneal polymorphonuclear leukocytes (casein-elicited)
# T1 sequence (A0A286X958 1-674): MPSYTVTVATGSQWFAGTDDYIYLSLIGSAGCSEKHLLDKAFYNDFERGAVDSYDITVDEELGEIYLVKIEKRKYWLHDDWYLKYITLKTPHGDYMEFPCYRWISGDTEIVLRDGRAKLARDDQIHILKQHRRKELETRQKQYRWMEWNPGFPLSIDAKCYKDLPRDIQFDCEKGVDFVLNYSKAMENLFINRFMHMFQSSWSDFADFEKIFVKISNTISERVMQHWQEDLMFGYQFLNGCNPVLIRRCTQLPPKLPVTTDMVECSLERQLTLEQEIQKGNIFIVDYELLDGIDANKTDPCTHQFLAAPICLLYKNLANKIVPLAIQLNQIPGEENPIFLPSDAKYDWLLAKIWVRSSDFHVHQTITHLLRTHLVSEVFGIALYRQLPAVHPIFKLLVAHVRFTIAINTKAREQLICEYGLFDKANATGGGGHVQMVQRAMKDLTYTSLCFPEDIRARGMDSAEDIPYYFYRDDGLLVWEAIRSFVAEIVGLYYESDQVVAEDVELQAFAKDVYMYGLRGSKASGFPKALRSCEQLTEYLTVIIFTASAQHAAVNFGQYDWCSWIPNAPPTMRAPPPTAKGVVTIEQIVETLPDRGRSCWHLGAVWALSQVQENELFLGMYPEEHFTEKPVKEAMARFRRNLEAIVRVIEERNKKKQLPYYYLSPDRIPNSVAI
# Experiment: 5-lipoxygenase inhibiting activity in guinea pig
# Type: biochemical
# Details: read-out: Inhibition rate against 5-lipoxygenase activity
# Experimental: The test was carried out according to the method of Ochi [cf. J. Biol. Chem., 258, 5754-5758 (1983)]. Two % casein solution in saline was injected intraperitoneally into guinea pigs in an amount of 1/10 of body weight. After 16 hours, 5-lipoxygenase was prepared with polymorphonuclear leukocyte obtained from peritoneal cavity. Test compound and 5-lipoxygenase were pre-incubated at 30° C. for 10 minutes, CaCl2 (calcium chloride) and ^14 C-arachidonic acid were added thereto, and the resulting mixture was incubated for 20 minutes. A mixture of ethyl acetate/methanol/0.2M citric acid=30/4/1 (by volume) was added thereto to stop the reaction. After centrifugation, the organic solvent layer was spotted on a plate for thin layer chromatography and developed. Effect of the test compound was determined from the amount of ^14 C-5-hydroxyeicosatetraenoic acid (hereinafter referred to as "5-HETE") formed from ^14 C-arachidonic acid. Radioactivity of 5-HETE position was measured with a liquid scintillation counter.
# Inhibition rate against 5-lipoxygenase activity was calculated according to the following equation.
# Inhibition rate against 5-lipoxygenase activity [formula] A: Value of radioactivity in the control group B: Value of radioactivity in the test compound group
# Each test compound was used in a concentration of 10 μM.
row,SMILES,inhibition at 10 µM [%]
1,CC(C)c1cccc2c(-c3nn[nH]n3)c(=O)n(CCCCc3ccccc3)c-2c1 [Example 51],-2.2
2,O=c1c(-c2nn[nH]n2)c2cccccc-2n1CCc1ccc(O)c(O)c1 [Example 46],41.8
3,O=c1c(-c2nn[nH]n2)c2cccccc-2n1CCOc1ccccc1 [Example 43],-7.2
4,O=c1c(-c2nn[nH]n2)c2cccccc-2n1CSc1ccccc1 [Example 44],18.3
